Experimental data taken from the NIST ThermoML archive (doi:10.1016/j.jct.2010.10.016).
± gives the expanded uncertainty stated by the source.

Assay: xn = mol fraction of the nth substance listed
Conditions: 101 kPa, Liquid; for speed of sound: Resonance method; for viscosity: Capillary tube (Ostwald / Ubbelohde) method; for mass density: Pycnometric method

CCCCOCCO [2-butoxyethan-1-ol] + C[N+](=O)[O-]
speed of sound (308.15 K, x2 = 0.1001): 1272.2 ± 2.3 m/s | speed of sound (308.15 K, x2 = 0.2003): 1270.2 ± 2.3 m/s | speed of sound (308.15 K, x2 = 0.3003): 1267.9 ± 2.3 m/s | speed of sound (308.15 K, x2 = 0.4005): 1265.9 ± 2.3 m/s | speed of sound (308.15 K, x2 = 0.5002): 1264.2 ± 2.3 m/s | speed of sound (308.15 K, x2 = 0.6): 1263.4 ± 2.3 m/s | speed of sound (308.15 K, x2 = 0.7): 1264.3 ± 2.3 m/s | speed of sound (308.15 K, x2 = 0.7999): 1267.3 ± 2.3 m/s | speed of sound (308.15 K, x2 = 0.8999): 1273.2 ± 2.3 m/s | speed of sound (308.15 K, x2 = 0.95): 1276.9 ± 2.3 m/s | viscosity (313.15 K, x2 = 0): 1.689 ± 0.02 mPa·s | viscosity (313.15 K, x2 = 0.0511): 1.606 ± 0.019 mPa·s | viscosity (313.15 K, x2 = 0.1135): 1.493 ± 0.018 mPa·s | viscosity (313.15 K, x2 = 0.2156): 1.314 ± 0.016 mPa·s | viscosity (313.15 K, x2 = 0.2993): 1.18 ± 0.014 mPa·s | viscosity (313.15 K, x2 = 0.3971): 1.042 ± 0.012 mPa·s | viscosity (313.15 K, x2 = 0.4497): 0.974 ± 0.011 mPa·s | viscosity (313.15 K, x2 = 0.4973): 0.915 ± 0.01 mPa·s | viscosity (313.15 K, x2 = 0.5458): 0.858 ± 0.009 mPa·s | viscosity (313.15 K, x2 = 0.5989): 0.798 ± 0.009 mPa·s | viscosity (313.15 K, x2 = 0.6958): 0.698 ± 0.008 mPa·s | viscosity (313.15 K, x2 = 0.8004): 0.617 ± 0.007 mPa·s | viscosity (313.15 K, x2 = 0.893): 0.572 ± 0.006 mPa·s | viscosity (313.15 K, x2 = 0.9491): 0.556 ± 0.006 mPa·s | mass density (313.15 K, x2 = 0): 883.59 ± 0.46 kg/m3 | mass density (313.15 K, x2 = 0.05): 887.43 ± 0.47 kg/m3 | mass density (313.15 K, x2 = 0.0999): 891.75 ± 0.47 kg/m3 | mass density (313.15 K, x2 = 0.2): 901.79 ± 0.48 kg/m3 | mass density (313.15 K, x2 = 0.3): 913.58 ± 0.49 kg/m3 | mass density (313.15 K, x2 = 0.4): 927.46 ± 0.49 kg/m3 | mass density (313.15 K, x2 = 0.5): 943.98 ± 0.5 kg/m3 | mass density (313.15 K, x2 = 0.6): 963.96 ± 0.51 kg/m3 | mass density (313.15 K, x2 = 0.7): 988.46 ± 0.52 kg/m3 | mass density (313.15 K, x2 = 0.8002): 1018.86 ± 0.54 kg/m3 | mass density (313.15 K, x2 = 0.8999): 1057.69 ± 0.6 kg/m3 | mass density (313.15 K, x2 = 0.9503): 1081.78 ± 0.64 kg/m3 | speed of sound (313.15 K, x2 = 0): 1257.7 ± 2.3 m/s | speed of sound (313.15 K, x2 = 0.0507): 1257.4 ± 2.3 m/s | speed of sound (313.15 K, x2 = 0.1001): 1256.8 ± 2.3 m/s | speed of sound (313.15 K, x2 = 0.2003): 1254.9 ± 2.3 m/s | speed of sound (313.15 K, x2 = 0.3003): 1252.7 ± 2.3 m/s | speed of sound (313.15 K, x2 = 0.4005): 1250.6 ± 2.3 m/s | speed of sound (313.15 K, x2 = 0.5002): 1248.8 ± 2.3 m/s | speed of sound (313.15 K, x2 = 0.6): 1248 ± 2.3 m/s | speed of sound (313.15 K, x2 = 0.7): 1248.7 ± 2.3 m/s | speed of sound (313.15 K, x2 = 0.7999): 1251.4 ± 2.3 m/s | speed of sound (313.15 K, x2 = 0.8999): 1256.3 ± 2.3 m/s | speed of sound (313.15 K, x2 = 0.95): 1259.5 ± 2.3 m/s
